Values of other authors, collected in patent US9333228B2, “Nutritional supplement for recovery, repair, and maintenance” (Top Doctors Labs, LLC, priority 2010, dated 2016).

Tested on: osteoporotic fractures
Conditions: human clinical studies; vitamin K2 as MK-4

## CC(C)=CCC/C(C)=C/CC/C(C)=C/CC/C(C)=C/CC1=C(C)C(=O)c2ccccc2C1=O [vitamin K2, menatetranone]
  lower risk of osteoporotic fractures: up to 81%
